Results taken from publication PMC8959600 (eLife, 2022).
In brackets after ≈: the same amount, converted by molar mass.

What was measured:
Shigella flexneri 2457T = test: Resazurin growth inhibition, dose response (IC50/IC90) in Müller Hinton medium; format: cell-based
Protocol: We developed a high-throughput screening (HTS) method to identify compounds that could inhibit the growth of Shigella flexneri 2457T in Müller Hinton medium (Sigma Aldrich, UK). We adapted a resazurin reduction protocol from Franzblau et al. as surrogate readout for bacterial viability because it provided a stable signal, a low interference level, and was cost effective ([Franzblau et al., 1998]). Prior to the day of experimentation, one colony was used to inoculate 50 mL Mueller Hinton medium, and the culture was incubated overnight at 37 °C. The next day, 500 μL of the bacterial culture were inoculated into 50 mL fresh Mueller Hinton medium and bacterial growth was measured periodically at 600 nm. When the culture reached OD = 0.4–0.6, the inoculum was diluted to 1 × 10^6 CFU/mL; this bacterial suspension was added to compound pre-dispensed plates for screening.
The assay was performed in 1536-well polystyrene assay plates (HiBase, μClear, Greiner Bio‐One) and used to screen ~1.7 million compounds from (a) GSK naïve chemical diversity, (b) GSK antibacterial programs, and (c) marketed antimicrobial agents. All commercially available chemicals were purchased from either Sigma Aldrich, UK, AK Scientific, or Fischer Chemicals. The GSK compound screening set was sub-selected from the 8 million compound GSK collection using the principles described by Harper and co-workers ([Harper et al., 2004]). The process to generate the structural filters to remove compounds bearing undesirable/reactive chemotypes and/or non-developable physicochemical properties has been described previously by [Chakravorty et al., 2018]. […]. The set of marketed antibacterial agents included most commercial antimicrobial agents.
For screening, plates were prepared by dispensing 50 nl of compound from master plates at 1 mM in each well using a LabCyte Echo system. The final assay volume was 5 μl and the final compound concentration was 10 µM. The 11th and 12th columns were growth controls containing 50 nL of DMSO. The 34th and 35th columns contained 50 nL of Moxifloxacin at 20 μM as negative growth controls. Five µl of bacterial inoculum was dispensed into compound pre-dispensed plates using a Multidrop Combi dispenser (Thermo Scientific). Plates were agitated for 10 s to ensure mixing and incubated at 37 °C overnight (16–17 hr). Following overnight culture, 2 µl resazurin solution (Resazurin tablets for milk testing, BDH) was added to each well and incubated at room temperature in the dark for 3 hr. Fluorescence intensity was measured using an Envision plate reader (PerkinElmer). […] Data were analysed using Base software and statistical cut-off analysis was used for ‘hit’ selection following a standard GSK protocol. To calculate the statistical cut-off, percentage growth inhibition was calculated per well according to the plate controls, these values were aggregated to calculate the robust mean and standard deviation (SD) of the distribution. The robust mean was calculated starting from the median and the MAD of the distribution with an iterative process that aimed to remove outliers. Once the mean and SD were calculated, all compounds above mean + 3 SD were selected as primary hits.
After the initial screen, we generated fresh samples of the primary compound hits and tested them in duplicate against S. flexneri 2457T at 10 μM to confirm activity. The confirmed hit list was narrowed by applying the following filters: a 30% cut-off value, absence of undesirable structural features (e.g. electrophiles, peroxides, and Michael acceptors) and reduced physicochemical risk (maximum five aromatic rings and PFI <8)([Leeson and Young, 2015]). […].

[1] = paediatric population, Tebipenem-Pivoxil PO; ref Sato et al., 2008; cited from earlier work
E. coli = test: MIC by micro dilution, clinical E. coli isolates from Vietnam; format: cell-based; conditions: Escherichia coli; seven E. coli from diarrhoeal cases in Vietnam; read-out: median MIC
Source text: Selected compounds, including Tebipenem, were profiled against a panel of […] clinical isolates of enteric pathogens comprised of Shigella (Vietnam and Kenya; n = 135), non-typhoidal Salmonella (Vietnam; n = 117), Campylobacter (Vietnam; n = 75), and various pathogenic E. coli species (Vietnam; n = 7) ([Butcher et al., 2014]). The antimicrobial susceptibility profile of these organisms is described in Supplementary file 1.
Compound screening and dose response assays have been described previously ([Van Voorhis et al., 2016]; [Wiegand et al., 2008]). Briefly, the selected bacteria were cultured on the Luria-Bertani agar overnight at 37 °C (Campylobacter isolates were grown in 2.5% Laked Horse Blood cation-adjusted Mueller Hinton medium (CAMHB, Sigma Aldrich) and incubated in microaerophilic conditions (10% CO2, 5% O2 and 85% N2) at 42 °C); colonies were added to sterile PBS to form 0.5 McFarland solutions. […] The activity of the chemical was recorded as being active (yes) or non-active (no) for each of the tested chemicals. A non-active result was recorded when there was no evidence of bacterial inhibition, and the culture area was indistinguishable from the negative control.
MICs were evaluated using the micro dilution assay in Müller Hinton broth using 1 mM chemical stock solutions, and a final concentration of 5 × 10^5 CFU/mL bacteria. […]

[2] = mice, Tebipenem PO 39 mg/kg, n = 3

C[C@@H](O)[C@H]1C(=O)N2C(C(=O)O)=C(SC3CN(C4=NCCS4)C3)[C@H](C)[C@H]12 [Tebipenem]
MIC (Shigella flexneri 2457T; 2457T, read-out: estimated MIC of S. flexneri 2457T): 0.39 µM
IC90 (Shigella flexneri 2457T; ATCC700930): 0.01 µg/mL (≈ 0.0261 µM)
AUC0-tlast [1]: 16000 ng·h/mL
Cmax [1]: 7500 ng/mL
MIC (E. coli): < 0.1 µM
bioavailability [2]: 4 ± 1%
